# According to patent publication US20230293526A1, “METHOD FOR TREATING CANCER WITH A REVERSE TRANSCRIPTASE INHIBITOR” (PrimeFour Therapeutics, Inc., priority 2020, published 2023):
# What was measured:
# cancer cell lines = experiment: Cancer cell proliferation activity of representative nucleosides, CellTiterGlo 72 h (Example 7, Tables 8 and 9); type: cell-based
# In short: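 Percent viability was set against 0.1% DMSO (100%) and 10 μM staurosporine (0%), with signal from CellTiterGlo luminescence. Dose-response treatment began one day after seeding and lasted 72 h at 37° C under 5% or 10% CO2, with 0.1% final DMSO.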
# human LINE-1 = experiment: Human LINE-1 (L1) retrotransposition dual-luciferase reporter assay in HeLa cells; type: cell-based; conditions: Homo sapiens, HeLa, 72 h, read-out: Human LINE-1 IC50 (Human L1 activity inhibition)
# Protocol: Representative compounds were tested for inhibition of retrotransposition activity of human LINE-1 (L1) retrotransposition reporter assay in HeLa cells according to the following procedure.
# Human Cervical Adenocarcinoma Cells (HeLa) were cultured in Dulbecco's Modified Eagle's Medium (DMEM) containing 4500 mg/L glucose, L-glutamine, sodium pyruvate and sodium bicarbonate, supplemented with 10% of heat inactivated fetal bovine serum (FBS). Cells were grown at 37° C. in an atmosphere of 5% CO2. The dual luciferase-encoding plasmid pYX017 was provided by Prof Wenfeng An (Xie, et al., 2011, Nucleic Acids Res).
# The reporter assay was performed in 96-well white, optical bottom plates (Thermo Fisher, 165306). 24 hours prior to transfection, HeLa cells were seeded in a density of 2,500 cells per well, in 50 μL of DMEM, 10% FBS media volume. Cells were incubated at 37° C. in an atmosphere of 5% CO2. Seeding was optimized to achieve approximately 30% cell confluency on the day of transfection. A transfection mix was prepared by combining transfection reagent FuGENE® HD (Promega, E2311) and plasmid DNA (100 ng per well) in a 3:1 ratio, in OpiMEM media (Thermo Fisher, 31985062). Next, 5 μL of the transfection mix was combined with 20 μL of DMEM, 10% FBS media, and 25 μL of this mix was added into each well of an assay plate. In each assay plate one column remained untransfected to serve as a blank luminescence signal.
# Serial dilution of test compounds was performed in DMSO and transferred to medium. Next, 25 μL of media-diluted compounds series were transferred to an assay plate containing cells and transfection media. The final concentration of DMSO in treated wells was 0.2%. Serial dilutions of compounds were added to an assay plate immediately after transfection. Compounds were tested in triplicates. The assay plate was then incubated with transfection reagent and compounds at 37° C. in an atmosphere of 5% CO2 for 72 hours.
# Luciferase reporter activity was quantified with the Dual-Luciferase® Reporter Assay System (Promega) following the manufacturer's manual, with a passive lysis buffer volume increased to 30 μL and lysis incubation time increased to 20 min at room temperature with gentle shaking, to ensure complete cell lysis. Luminescence was measured using a SpectraMax i3×Multi-Mode Microplate Reader, with integration times of 100 ms and 10 ms applied to measure FLuc and RLuc signals, respectively. Relative LNE-1 activity was calculated as Firefly signal/Renilla signal*10,000. In order to determine IC50 values for each compound, dose response data were fit to a logistic using non-linear regression.
structure (smiles),measurement,setting,value
"C#C[C@]1(CO)O[C@@H](n2cnc3c(N)nc(F)nc32)C[C@@H]1O [Islatravir (EFdA), Islatravir, reference compound]",IC50,"cancer cell lines; 72 h, 5637, 72 h (Table 9)",2.57 µM
same,IC50,"cancer cell lines; 72 h, CLS439, 72 h (Table 9)",> 50 µM
same,IC50,"cancer cell lines; 72 h, HS729, 72 h (Table 9)",4.24 µM
same,IC50,"cancer cell lines; 72 h, J82, 72 h (Table 9)",5.43 µM
same,IC50,"cancer cell lines; 72 h, JAR, 72 h (Table 9)",5.41 µM
same,IC50,"cancer cell lines; 72 h, MT3, 72 h (Table 9)",2.64 µM
same,IC50,"cancer cell lines; 72 h, PC3, 72 h (Table 9)",3.12 µM
same,IC50,"cancer cell lines; 72 h, RD, 72 h (Table 9)",3.3 µM
same,IC50,"cancer cell lines; 72 h, T24, 72 h (Table 9)",2.68 µM
same,IC50,"cancer cell lines; Homo sapiens, 22Rv1, 72 h, 22RV1, 72 h (Table 9)",> 50 µM
same,IC50,"cancer cell lines; Homo sapiens, 786-0, 72 h, 786O, 72 h (Table 9)",3.31 µM
same,IC50,"cancer cell lines; Homo sapiens, A204, 72 h, A204, 72 h (Table 9)",1.46 µM
same,IC50,"cancer cell lines; Homo sapiens, A549, 72 h, A549, 72 h (Table 9)",2.98 µM
same,IC50,"cancer cell lines; Homo sapiens, A673, 72 h, A673, 72 h (Table 9)",4.57 µM
same,IC50,"cancer cell lines; Homo sapiens, A2780, 72 h, A2780, 72 h (Table 9)",4.93 µM
same,IC50,"cancer cell lines; Homo sapiens, A-375, 72 h, A375, 72 h (Table 9)",2.69 µM
same,IC50,"cancer cell lines; Homo sapiens, A-431, 72 h, A431, 72 h (Table 9)",2.87 µM
same,IC50,"cancer cell lines; Homo sapiens, ACHN, 72 h, 72 h (Table 9)",2.48 µM
same,IC50,"cancer cell lines; Homo sapiens, ASPC1, 72 h, ASPC1, 72 h (Table 9)",4.97 µM
same,IC50,"cancer cell lines; Homo sapiens, BT-20, 72 h, BT20, 72 h (Table 9)",2.79 µM
same,IC50,"cancer cell lines; Homo sapiens, BXPC-3, 72 h, BXPC3, 72 h (Table 9)",2.77 µM
same,IC50,"cancer cell lines; Homo sapiens, C-33-A, 72 h, C33A, 72 h (Table 9)",2.65 µM
same,IC50,"cancer cell lines; Homo sapiens, CAKI-1, 72 h, CAKI1, 72 h (Table 9)",0.69 µM
same,IC50,"cancer cell lines; Homo sapiens, COLO 205, 72 h, COLO205, 72 h (Table 9)",4.98 µM
same,IC50,"cancer cell lines; Homo sapiens, COLO-678, 72 h, COLO678, 72 h (Table 9)",3.11 µM
same,IC50,"cancer cell lines; Homo sapiens, Ca-Ski, 72 h, CASKI, 72 h (Table 9)",5.31 µM
same,IC50,"cancer cell lines; Homo sapiens, Caco-2, 72 h, CACO2, 72 h (Table 9)",> 50 µM
same,IC50,"cancer cell lines; Homo sapiens, Calu-6, 72 h, CALU6, 72 h (Table 9)",5.3 µM
same,IC50,"cancer cell lines; Homo sapiens, DLD-1, 72 h, DLD1, 72 h (Table 9)",> 50 µM
same,IC50,"cancer cell lines; Homo sapiens, DU-145, 72 h, DU145, 72 h (Table 9)",2.53 µM
same,IC50,"cancer cell lines; Homo sapiens, EFO-21, 72 h, EFO21, 72 h (Table 9)",4.62 µM
same,IC50,"cancer cell lines; Homo sapiens, EJ-28, 72 h, EJ28, 72 h (Table 9)",5.71 µM
same,IC50,"cancer cell lines; Homo sapiens, Granta-519, 72 h, GRANTA-519, 72 h (Table 9)",1.68 µM
same,IC50,"cancer cell lines; Homo sapiens, HCT-15, 72 h, HCT15, 72 h (Table 9)",5.9 µM
same,IC50,"cancer cell lines; Homo sapiens, HCT-116, 72 h, HCT116, 72 h (Table 9)",4.69 µM
same,IC50,"cancer cell lines; Homo sapiens, HEK293, 72 h, HEK293, 72 h (Table 9)",4.16 µM
same,IC50,"cancer cell lines; Homo sapiens, HL-60, 72 h, HL-60, 72 h (Table 9)",3.49 µM
same,IC50,"cancer cell lines; Homo sapiens, HT-29, 72 h, HT29, 72 h (Table 9)",4.63 µM
same,IC50,"cancer cell lines; Homo sapiens, HT-1080, 72 h, HT1080, 72 h (Table 9)",3.19 µM
same,IC50,"cancer cell lines; Homo sapiens, HeLa, 72 h, 72 h (Table 9)",2.98 µM
same,IC50,"cancer cell lines; Homo sapiens, HepG2, 72 h, HEPG2, 72 h (Table 9)",3.14 µM
same,IC50,"cancer cell lines; Homo sapiens, Hs-578T, 72 h, HS578T, 72 h (Table 9)",2.94 µM
same,IC50,"cancer cell lines; Homo sapiens, IGROV-1, 72 h, IGROV1, 72 h (Table 9)",3.03 µM
same,IC50,"cancer cell lines; Homo sapiens, IMR-90, 72 h, IMR90, 72 h (Table 9)",2.46 µM
same,IC50,"cancer cell lines; Homo sapiens, JEG-3, 72 h, JEG3, 72 h (Table 9)",3.95 µM
same,IC50,"cancer cell lines; Homo sapiens, JIMT-1, 72 h, JIMT1, 72 h (Table 9)",1.58 µM
same,IC50,"cancer cell lines; Homo sapiens, K562, 72 h, K-562, 72 h (Table 9)",4.46 µM
same,IC50,"cancer cell lines; Homo sapiens, Kasumi 1, 72 h, KASUMI-1, 72 h (Table 9)",0.96 µM
same,IC50,"cancer cell lines; Homo sapiens, L-363, 72 h, L-363, 72 h (Table 9)",3.21 µM
same,IC50,"cancer cell lines; Homo sapiens, LoVo, 72 h, 72 h (Table 9)",2.79 µM
same,IC50,"cancer cell lines; Homo sapiens, MCF7, 72 h, MCF7, 72 h (Table 9)",> 50 µM
same,IC50,"cancer cell lines; Homo sapiens, MDA-MB-231, 72 h, MDAMB231, 72 h (Table 9)",2.56 µM
same,IC50,"cancer cell lines; Homo sapiens, MDA-MB-435, 72 h, MDAMB435, 72 h (Table 9)",> 50 µM
same,IC50,"cancer cell lines; Homo sapiens, MDA-MB-436, 72 h, MDAMB436, 72 h (Table 9)",3.59 µM
same,IC50,"cancer cell lines; Homo sapiens, MDA-MB-468, 72 h, MDAMB468, 72 h (Table 9)",4 µM
same,IC50,"cancer cell lines; Homo sapiens, MG-63, 72 h, MG63, 72 h (Table 9)",> 50 µM
same,IC50,"cancer cell lines; Homo sapiens, MHH-ES-1, 72 h, MHHES1, 72 h (Table 9)",3.51 µM
same,IC50,"cancer cell lines; Homo sapiens, MIA PaCa-2, 72 h, MIAPACA2, 72 h (Table 9)",> 50 µM
same,IC50,"cancer cell lines; Homo sapiens, MINO, 72 h, 72 h (Table 9)",1.34 µM
same,IC50,"cancer cell lines; Homo sapiens, MV4-11, 72 h, MV4-11, 72 h (Table 9)",2.39 µM
same,IC50,"cancer cell lines; Homo sapiens, NCI-H23, 72 h, NCI-H23, 72 h (Table 9)",2.96 µM
same,IC50,"cancer cell lines; Homo sapiens, NCI-H82, 72 h, NCIH82, 72 h (Table 9)",2.73 µM
same,IC50,"cancer cell lines; Homo sapiens, NCI-H292, 72 h, NCIH292, 72 h (Table 9)",3.68 µM
same,IC50,"cancer cell lines; Homo sapiens, NCI-H460, 72 h, NCIH460, 72 h (Table 9)",3.31 µM
same,IC50,"cancer cell lines; Homo sapiens, OVCAR-3, 72 h, OVCAR3, 72 h (Table 9)",4.15 µM
same,IC50,"cancer cell lines; Homo sapiens, OVCAR-4, 72 h, OVCAR4, 72 h (Table 9)",3.1 µM
same,IC50,"cancer cell lines; Homo sapiens, PANC-1, 72 h, PANC1, 72 h (Table 9)",> 50 µM
same,IC50,"cancer cell lines; Homo sapiens, PLC-PRF-5, 72 h, PLCPRF5, 72 h (Table 9)",> 50 µM
same,IC50,"cancer cell lines; Homo sapiens, Panc1005, 72 h, PANC1005, 72 h (Table 9)",3.87 µM
same,IC50,"cancer cell lines; Homo sapiens, Ramos, 72 h, 72 h (Table 9)",1.88 µM
same,IC50,"cancer cell lines; Homo sapiens, SAOS-2, 72 h, SAOS2, 72 h (Table 9)",1.65 µM
same,IC50,"cancer cell lines; Homo sapiens, SF-268, 72 h, SF268, 72 h (Table 9)",> 50 µM
same,IC50,"cancer cell lines; Homo sapiens, SF-295, 72 h, SF295, 72 h (Table 9)",2.91 µM
same,IC50,"cancer cell lines; Homo sapiens, SK-BR-3, 72 h, SKBR3, 72 h (Table 9)",1.76 µM
same,IC50,"cancer cell lines; Homo sapiens, SK-HEP1, 72 h, SKHEP1, 72 h (Table 9)",2.66 µM
same,IC50,"cancer cell lines; Homo sapiens, SK-LMS-1, 72 h, SKLMS1, 72 h (Table 9)",3.35 µM
same,IC50,"cancer cell lines; Homo sapiens, SK-MEL-5, 72 h, SKMEL5, 72 h (Table 9)",6.02 µM
same,IC50,"cancer cell lines; Homo sapiens, SK-MEL-28, 72 h, SKMEL28, 72 h (Table 9)",3.84 µM
same,IC50,"cancer cell lines; Homo sapiens, SK-N-AS, 72 h, SKNAS, 72 h (Table 9)",2.98 µM
same,IC50,"cancer cell lines; Homo sapiens, SK-N-SH, 72 h, SKNSH, 72 h (Table 9)",3.37 µM
same,IC50,"cancer cell lines; Homo sapiens, SK-OV-3, 72 h, SKOV3, 72 h (Table 9)",3.25 µM
same,IC50,"cancer cell lines; Homo sapiens, SNB-75, 72 h, SNB75, 72 h (Table 9)",3.27 µM
same,IC50,"cancer cell lines; Homo sapiens, SU-DHL10, 72 h, SU-DHL-10, 72 h (Table 9)",2.6 µM
same,IC50,"cancer cell lines; Homo sapiens, SU-DHL-6, 72 h, SU-DHL-6, 72 h (Table 9)",1.68 µM
same,IC50,"cancer cell lines; Homo sapiens, SW-620, 72 h, SW620, 72 h (Table 9)",3.81 µM
same,IC50,"cancer cell lines; Homo sapiens, TE-671, 72 h, TE671, 72 h (Table 9)",> 50 µM
same,IC50,"cancer cell lines; Homo sapiens, THP-1, 72 h, THP-1, 72 h (Table 9)",2.93 µM
same,IC50,"cancer cell lines; Homo sapiens, U2OS, 72 h, 72 h (Table 9)",2.53 µM
same,IC50,"cancer cell lines; Homo sapiens, U-87 MG, 72 h, U87MG, 72 h (Table 9)",2.75 µM
same,IC50,"cancer cell lines; Homo sapiens, UMUC3, 72 h, UMUC3, 72 h (Table 9)",3.53 µM
same,IC50,"cancer cell lines; Homo sapiens, UO-31, 72 h, UO31, 72 h (Table 9)",4.71 µM
same,IC50,"cancer cell lines; Homo sapiens, WSU-NHL, 72 h, 72 h (Table 9)",3.17 µM
same,IC50,"cancer cell lines; NCI-H358M, 72 h, NCIH358M, 72 h (Table 9)",0.73 µM
same,IC50,"cancer cell lines; PBMC, 72 h, 72 h (Table 9)",> 50 µM
same,IC50,"cancer cell lines; RD-ES, 72 h, RDES, 72 h (Table 9)",3.01 µM
same,IC50,human LINE-1,0.0011 µM
